{"source": "patent US11559525B2", "about": "“Therapeutic drug for dyskinesia” (Sumitomo Pharma Co., Ltd., priority 2019, dated 2023)", "key": {"[1]": {"system": "PD-LID rat model (6-OHDA-lesioned rats)", "assay": "Dyskinesia-like symptoms (AIMs score) after transdermal tandospirone tape agent in PD-LID rat model", "assay_type": "in vivo", "source_text": "A rat striatum dopaminergic denervation model using topical administration of 6-hydroxydopamine (hereinafter, also referred to as “6-OHDA”) to one side of the brain is known as a typical experimental model for PD-LID (rats treated on one side with 6-OHDA (6-OHDA-lesioned rats)). Dyskinesia-like abnormal involuntary movements (AIMs) manifest in said model with repeated administration of levodopa (Lundblad et al., European Journal of Neuroscience, 2002, 15: 120-132, Winkler et al., Neurobiology of Disease, 2002, 10: 165-186).\nWistar male rats (12-week old, Japan SLC, Inc.) were used for the preparation of animal models. Desipramine hydrochloride (25 mg/kg; Wako Pure Chemical) was intraperitoneally administered. After 30 minutes from the administration, the rats were subjected to isoflurane inhalational anesthetic using a general anesthesia apparatus for experimental animals. Under isoflurane anesthesia, the rats were immobilized to a brain stereotaxic instrument. The skin on the head was incised with a surgical scalpel to expose the skull. The coordinates of the bregma used as the origin (AP: 0, ML: 0, DV: 0) was determined, and the coordinates of the right medial forebrain bundle (AP: −4.4 mm, ML: 1.5 mm, DV: 7.8 mm from bregma) were measured. After inserting an injection tube for administration at the measured coordinates, 6-OHDA (9 μg/4 μL; Sigma-Aldrich) inducing dopaminergic denervation was topically injected. After 2 weeks from surgery, apomorphine hydrochloride hemihydrate (0.5 mg/kg; Wako Pure Chemical) was subcutaneously administered, and the rotation movement to the opposite side from the 6-OHDA injected site was observed. Rats with 7 rotations or more per minute were used as rats treated on one side with 6-OHDA.\nTo make a PD-LID model, a mixture of levodopa methyl ester hydrochloride (6 mg/kg; Sigma-Aldrich) dissolved in saline and benserazide hydrochloride (15 mg/kg; Sigma-Aldrich) (hereinafter, also referred to as “levodopa containing solution”) was intraperitoneally administered once daily to 6-OHDA-lesioned rats. The levodopa containing solution was repeated administered for 3 weeks or longer to observe and evaluate the behavior. The behavior was observed and evaluated in a transparent acrylic cage for 1 minute every 20 minutes after 20 minutes from the intraperitoneal administration of the levodopa containing solution, up until after 3 hours from administration. […] The sum of the scores for Limb AIMs, Axial AIMs, and Orolingual AIMs in 3 hours was used as the total AIMs score. Individuals with a total AIMs score of less than 10 were excluded from the test as not manifesting a dyskinesia-like symptom. […] The rats were assigned to each dosing group by using the 3 hour AIMs score, Locomotive behavior score, and rat body weight as indicators, which were used for evaluation of drugs.\nWhen evaluating a tape agent, the hair on the abdominal region of rats was shaved before the evaluation date. […] After 4 hours from application, a levodopa containing solution was intraperitoneally administered to observe and evaluate the behavior. Individuals with 50% or more of the tape agent coming off during the test were excluded from analysis.\nAfter 4 hours from application, a levodopa containing solution was intraperitoneally administered to observe and evaluate the behavior. Individuals with 50% or more of the tape agent coming off during the test were excluded from analysis.\nWhen evaluating dyskinesia-like symptoms, the sum of the Limb AIMs, Axial AIMs, and Orolingual AIMs at each evaluation point was used as the AIMs score."}, "[2]": {"system": "PD-LID rat model (6-OHDA-lesioned rats)", "assay": "ON-time prolongation action (ON score, ON time without dyskinesia) in PD-LID rat model", "assay_type": "in vivo", "conditions": "oral 100 mg/kg as citrate", "method": "To make a PD-LID rat model, a mixture of levodopa methyl ester hydrochloride (6 mg/kg; Sigma-Aldrich) dissolved in saline and benserazide hydrochloride (15 mg/kg; Sigma-Aldrich) (hereinafter, also referred to as “levodopa containing solution”) was intraperitoneally administered once daily to 6-OHDA-lesioned rats. The levodopa containing solution was repeatedly administered for 3 weeks or longer to observe and evaluate the behavior. […] The sum of the scores for Limb AIMs, Axial AIMs, and Orolingual AIMs in 3 hours was used as the total dyskinesia-like symptom (AIMs) score. Individuals with a total AIMs score of less than 10 were excluded from the test as not manifesting a dyskinesia-like symptom. The behavior was observed and evaluated before the drug evaluation date. The rats were assigned to each dosing group by using the 3 hour total dyskinesia-like symptom (AIMs) score, Locomotive behavior score, and rat body weight as indicators, which were used for evaluation of drugs. For an indicator of dyskinesia behavior, the sum of the Limb AIMs, Axial AIMs, and Orolingual AIMs at each evaluation point was used as the AIMs score. For the rotational behavior (ON score), Locomotive behavior at each evaluation point was used as an indicator. The total ON score in 3 hours was used as the total ON score. For ON time without dyskinesia, the period during which the AIMs score is 0 and Locomotive behavior is 1 or greater at each evaluation point was added. Duration of action of levodopa without a dyskinesia symptom (ON time without dyskinesia) refers to the aggregate time with no dyskinesia during the antiparkinsonian action effective time, i.e., “ON-time”, and defined as the time during which the dyskinesia symptom (AIMs) score is 0 and the rotational behavior (Locomotive behavior) score is 1 or greater at each evaluation point after levodopa administration. […] After 5 minutes, a levodopa containing solution was intraperitoneally administered, and the behavior was observed and evaluated. The results in the drawings are indicated in terms of mean value±standard error. The test results were statistically analyzed by comparison with the solvent administration group using the Steel test with the total ON score in 3 hours or ON time without dyskinesia as an indicator. ** indicates p<0.01, meaning that there is a significant difference. For evaluation of a tape agent, the abdominal regions of the rats were shaved prior to the evaluation date. […] After 4 hours from application, a levodopa containing solution was intraperitoneally administered to observe and evaluate the behavior. The results in the drawings are indicated in terms of mean value±standard error. Individuals with 50% or more of the tape agent coming off during the test were excluded from analysis. The test results were statistically analyzed by comparison with the placebo tape administration group using Wilcoxon rank sum test with the total ON score in 3 hours or ON time without dyskinesia as an indicator. * indicates p<0.05 and ** indicates […], meaning that there is a significant difference compared to the solvent oral administration group or the placebo tape administration group."}, "[3]": {"conditions": "transdermal condition 1, 37 mg/kg, no stripping"}, "[4]": {"conditions": "transdermal condition 2, 45 mg/kg, with stripping"}}, "note": "Marks after values point to notes of the source that are not given here."}
{"smiles": "O=C1[C@@H]2[C@H]3CC[C@H](C3)[C@@H]2C(=O)N1CCCCN1CCN(c2ncccn2)CC1", "note": "[tandospirone, (1R,2S,3R,4S)—N-[4-{4-(pyrimidine-2-yl)piperadine-1-yl}butyl]-2,3-bicyclo[2.2.1]heptanedicarboximide]", "values": [{"measurement": "difference (decrease) in total AIMs score in 3 hours, placebo tape agent minus tandospirone", "setting": "[1]; transdermal condition 1 (no stripping), 37 mg/kg", "value": "17.7**"}, {"measurement": "(ii) Indicator of rebound symptom of dyskinesia, in words", "setting": "[1]; [3]", "value": "No effect"}, {"measurement": "(ii) Indicator of rebound symptom of dyskinesia: difference in total AIMs score in 100 to 180 minutes (placebo minus tandospirone)", "setting": "[1]; [3]", "value": "−0.1"}, {"measurement": "difference (decrease) in total AIMs score in 3 hours, placebo tape agent minus tandospirone", "setting": "[1]; transdermal condition 2 (with stripping), 45 mg/kg", "value": "27.1**"}, {"measurement": "(ii) Indicator of rebound symptom of dyskinesia, in words", "setting": "[1]; [4]", "value": "No effect"}, {"measurement": "(ii) Indicator of rebound symptom of dyskinesia: difference in total AIMs score in 100 to 180 minutes (placebo minus tandospirone)", "setting": "[1]; [4]", "value": 0.9}, {"measurement": "ON-time without dyskinesia for 180 minutes (Locomotive behavior ≥1, and AIMs score=0)", "setting": "[2]", "value": "prolongation of ON time without dyskinesia was observed only at a dose at which there is a risk of side effects"}]}
